{"source": "paper PMC10503797", "about": "“Allosteric modulator potentiates β2AR agonist–promoted bronchoprotection in asthma models” (The Journal of Clinical Investigation, 2023)", "molecules": {"B1": {"name": "Ovalbumin: the allergen used in IgE-sensitized guinea pigs (protein, UniProt P01012 2-386, looked up)", "Ovalbumin": "GSIGAASMEFCFDVFKELKVHHANENIFYCPIAIMSALAMVYLGAKDSTRTQINKVVRFDKLPGFGDSIEAQCGTSVNVHSSLRDILNQITKPNDVYSFSLASRLYAEERYPILPEYLQCVKELYRGGLEPINFQTAADQARELINSWVESQTNGIIRNVLQPSSVDSQTAMVLVNAIVFKGLWEKAFKDEDTQAMPFRVTEQESKPVQMMYQIGLFRVASMASEKMKILELPFASGTMSMLVLLPDEVSGLEQLESIINFEKLTEWTSSNVMEERKIKVYLPRMKMEEKYNLTSVLMAMGITDVFSSSANLSGISSAESLKISQAVHAAHAEINEAGREVVGSAEAGVDAASVSEEFRADHPFLFCIKHIATNAVLFFGRCVSP"}}, "key": {"guinea pig lung slices": {"test_system": "guinea pig lung slices", "assay": "Methacholine-induced airway constriction in guinea pig lung slices", "format": "cell-based", "parameters": "key to MCh-induced airway constriction response (Figure 5D): % of initial (baseline) airway luminal area", "conditions": "for MCh-induced airway constriction response (Figure 5D): 10 µM Fenoterol + 25 µM Cmp6, Exp1-6", "experimental": "All curve fits were generated using the software program GraphPad Prism. Data are represented as mean ± SEM obtained from 6 guinea pigs.\n(§1) Precision-cut lung slices were prepared as described previously ([61], [62]). A 3% solution of low melting-point agarose (Gerbu Biotechnik GmbH) in ultrapure water was prepared by heating it a microwave until fully dissolved. […] After filling, the lungs were covered with ice for 30 minutes to solidify the agarose for slicing. […] Lung slices were cut at a thickness of 500 μm and washed several times with slicing buffer to remove debris and washout the isoproterenol. Slices were incubated overnight in a 60 mm dish in sterile incubation buffer: MEM composed of lung slice buffer supplemented with 0.5 mM sodium pyruvate, 1 mM glutamine (Gibco), MEM-amino acids mixture (1:50), MEM-vitamins mixture (1:100; Gibco), and penicillin-streptomycin (1:100; Gibco), pH = 7.2, at 37°C in a CO2- and humidity-controlled atmosphere.\n(§2) After washing the slices in medium, individual guinea pig lung slices were mechanically maintained with a Teflon ring with an inner diameter of 7 mm and covered with 1 mL of incubation buffer. […] Image acquisition software (NIS-Elements, Nikon) was used to quantify airway luminal area. Images of the airways were acquired every 2 seconds during the whole course of the experiment, starting 2 minutes before the addition of any agent to allow for baseline measurements of the airway caliber. For each methacholine or ovalbumin concentration, the maximal airway constriction was expressed as percentage of the initial (baseline) airway luminal area and plotted against that concentration."}, "V133F mutant murine β2AR": {"biological_target": "V133F mutant murine β2AR (Mus musculus, UniProt P18762, V133F)", "sequence (P18762 whole entry V133F)": "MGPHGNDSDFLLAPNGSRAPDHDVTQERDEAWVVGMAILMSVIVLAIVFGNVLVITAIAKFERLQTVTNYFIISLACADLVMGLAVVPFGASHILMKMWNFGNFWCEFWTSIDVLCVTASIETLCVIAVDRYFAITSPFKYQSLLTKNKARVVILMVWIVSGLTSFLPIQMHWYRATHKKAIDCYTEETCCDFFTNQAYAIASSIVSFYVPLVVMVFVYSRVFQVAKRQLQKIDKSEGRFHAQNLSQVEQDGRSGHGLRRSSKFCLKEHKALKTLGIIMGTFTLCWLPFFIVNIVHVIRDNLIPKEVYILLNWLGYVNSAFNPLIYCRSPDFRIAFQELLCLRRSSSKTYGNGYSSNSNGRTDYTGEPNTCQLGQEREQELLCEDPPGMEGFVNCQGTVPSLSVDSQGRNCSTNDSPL", "assay": "125I-CYP radioligand competition binding, V133F mutant murine β2AR", "conditions": "V133F DMSO", "method": "(§3) Statistical analyses were performed using 1-way ANOVA, repeated (related) measures with Tukey’s posthoc test."}, "WT murine β2AR": {"biological_target": "WT murine β2AR (Mus musculus, UniProt P18762)", "sequence (P18762 whole entry)": "as the sequence (P18762 whole entry V133F) above, with F133V counted along it", "assay": "125I-CYP radioligand competition binding, WT murine β2AR", "conditions": "WT DMSO", "method": "as §3"}, "guinea pig β2AR": {"biological_target": "guinea pig β2AR (Cavia porcellus, UniProt Q8K4Z4)", "sequence (Q8K4Z4 whole entry)": "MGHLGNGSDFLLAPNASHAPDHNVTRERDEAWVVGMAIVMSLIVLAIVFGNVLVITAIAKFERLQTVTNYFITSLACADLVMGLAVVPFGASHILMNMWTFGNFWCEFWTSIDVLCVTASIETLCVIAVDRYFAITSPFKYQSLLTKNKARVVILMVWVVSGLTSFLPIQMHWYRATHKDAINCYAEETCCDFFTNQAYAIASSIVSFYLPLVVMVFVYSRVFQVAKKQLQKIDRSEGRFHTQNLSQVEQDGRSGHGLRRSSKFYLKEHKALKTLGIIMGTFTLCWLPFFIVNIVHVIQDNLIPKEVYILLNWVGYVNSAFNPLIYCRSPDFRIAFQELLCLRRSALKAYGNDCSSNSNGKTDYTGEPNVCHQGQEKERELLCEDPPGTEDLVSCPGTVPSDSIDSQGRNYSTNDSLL", "assay": "125I-CYP radioligand competition binding, guinea pig β2AR", "conditions": "DMSO"}, "[1]": {"test_system": "lung slices obtained from ovalbumin-sensitized guinea pigs", "assay": "Ovalbumin-induced airway constriction in lung slices from ovalbumin-sensitized guinea pigs", "format": "cell-based, guinea pig", "conditions": "ovalbumin-sensitized guinea pigs; no treatment", "from_the_text": "All curve fits were generated using the software program GraphPad Prism. Data are represented as mean ± SEM of 4–5 guinea pigs (see Table 2 for statistical analyses).\nOutbred, male, specified pathogen-free Dunkin Hartley guinea pigs (Charles River Laboratory) weighing 200 to 400 g were used. The animals were housed in pairs under a 12-hour light/dark cycle in a temperature- and humidity-controlled room with food and tap water ad libitum. For studies in the guinea pig model of allergic asthma, animals were actively IgE-sensitized to ovalbumin by injecting a suspension containing 100 μg/mL ovalbumin and 100 mg/mL Al(OH)3 in saline. Each animal was injected with 1.0 mL of suspension: 0.5 mL was injected i.p. and 0.5 mL was divided over 7 s.c. sites close to lymph nodes in the neck, paws, and lumbar regions ([24]). Animals were euthanized at least 4 weeks after sensitization.\nas §1, §2"}}, "note": "Several values for one entry are separate records, joined by “and”; a condition that tells them apart may be missing. Identical values can stand only once."}
{"molecule": "COc1ccc(Sc2ccc(S(=O)(=O)N(C)C(C)C)cc2C(=O)N[C@H](CC(N)=O)Cc2ccc(C(C)(C)C)cc2)cc1", "note": "[Cmp6]", "values": [{"measurement": "MCh-induced airway constriction response (Figure 5D)", "setting": "guinea pig lung slices; -Log [MCh] 6.5", "value": "84.9 and 96.3 and 94.4 and 89.0 and 84.3"}, {"measurement": "MCh-induced airway constriction response (Figure 5D)", "setting": "guinea pig lung slices; -Log [MCh] 7", "value": "103.8 and 101.2 and 95.0 and 101.0 and 99.7"}, {"measurement": "MCh-induced airway constriction response (Figure 5D)", "setting": "guinea pig lung slices; -Log [MCh] 7.5", "value": "104.7 and 102.5 and 101.8 and 96.6 and 103.6 and 102.8"}, {"measurement": "MCh-induced airway constriction response (Figure 5D)", "setting": "guinea pig lung slices; -Log [MCh] 8", "value": "105.1 and 102.7 and 102.2 and 96.3 and 103.7 and 102.1"}]}
{"molecule": "CC(=O)OC(C)C[N+](C)(C)C", "note": "(stereo not shown) [Methacholine, methacholine]", "values": [{"measurement": "EC50", "setting": "guinea pig lung slices; Cavia porcellus, naive guinea pigs, no treatment, read-out: EC50 of airway constriction", "value": "0.25 ± 0.06", "unit": "µM"}]}
{"molecule": "CC(C)NCC(O)c1ccc(O)c(O)c1", "note": "(stereo not shown) [ISO, isoproterenol, reference compound]", "values": [{"measurement": "125I-CYP binding (% of maximal)", "setting": "V133F mutant murine β2AR; log[ISO] -4 M", "value": "-0.1642% and -0.422% and -0.2235% and 0.05522%"}, {"measurement": "125I-CYP binding (% of maximal)", "setting": "V133F mutant murine β2AR; log[ISO] -4.49485 M", "value": "1.355% and 1.539% and 1.229% and 0.6906%"}, {"measurement": "125I-CYP binding (% of maximal)", "setting": "V133F mutant murine β2AR; log[ISO] -5.09691 M", "value": "4.785% and 4.497% and 3.5069% and 4.749%"}, {"measurement": "125I-CYP binding (% of maximal)", "setting": "V133F mutant murine β2AR; log[ISO] -5.69897 M", "value": "14.8509% and 14.5905% and 12.5433% and 13.7771%"}, {"measurement": "125I-CYP binding (% of maximal)", "setting": "V133F mutant murine β2AR; log[ISO] -6.30103 M", "value": "36.9962% and 34.2695% and 32.8754% and 34.2526%"}, {"measurement": "125I-CYP binding (% of maximal)", "setting": "V133F mutant murine β2AR; log[ISO] -6.90309 M", "value": "66.198% and 62.9489% and 57.7767% and 62.1859%"}, {"measurement": "125I-CYP binding (% of maximal)", "setting": "V133F mutant murine β2AR; log[ISO] -7.50515 M", "value": "86.6591% and 87.6539% and 79.9524% and 86.2876%"}, {"measurement": "125I-CYP binding (% of maximal)", "setting": "V133F mutant murine β2AR; log[ISO] -8.10721 M", "value": "96.9071% and 95.4546% and 94.0497% and 96.919%"}, {"measurement": "125I-CYP binding (% of maximal)", "setting": "V133F mutant murine β2AR; log[ISO] -8.70927 M", "value": "99.4994% and 99.6962% and 98.92% and 100.879%"}, {"measurement": "125I-CYP binding (% of maximal)", "setting": "V133F mutant murine β2AR; log[ISO] -9.31133 M", "value": "99.9887% and 99.7215% and 100.53% and 99.951%"}, {"measurement": "125I-CYP binding (% of maximal)", "setting": "V133F mutant murine β2AR; log[ISO] -9.91339 M", "value": "102.257% and 101.759% and 102.441% and 98.1746%"}, {"measurement": "125I-CYP binding (% of maximal)", "setting": "WT murine β2AR; log[ISO] -4 M", "value": "-0.1438% and -0.4111% and -0.227% and -0.3498%"}, {"measurement": "125I-CYP binding (% of maximal)", "setting": "WT murine β2AR; log[ISO] -4.49485 M", "value": "2.592% and 1.529% and 1.507% and 1.987%"}, {"measurement": "125I-CYP binding (% of maximal)", "setting": "WT murine β2AR; log[ISO] -5.09691 M", "value": "7.083% and 4.639% and 5.507% and 5.149%"}, {"measurement": "125I-CYP binding (% of maximal)", "setting": "WT murine β2AR; log[ISO] -5.69897 M", "value": "19.715% and 17.6774% and 15.359% and 15.8985%"}, {"measurement": "125I-CYP binding (% of maximal)", "setting": "WT murine β2AR; log[ISO] -6.30103 M", "value": "44.1973% and 39.2701% and 36.5787% and 38.852%"}, {"measurement": "125I-CYP binding (% of maximal)", "setting": "WT murine β2AR; log[ISO] -6.90309 M", "value": "69.5556% and 67.7036% and 62.3553% and 65.7463%"}, {"measurement": "125I-CYP binding (% of maximal)", "setting": "WT murine β2AR; log[ISO] -7.50515 M", "value": "90.4216% and 85.9767% and 84.6762% and 89.3527%"}, {"measurement": "125I-CYP binding (% of maximal)", "setting": "WT murine β2AR; log[ISO] -8.10721 M", "value": "98.0111% and 97.6178% and 94.6894% and 94.0001%"}, {"measurement": "125I-CYP binding (% of maximal)", "setting": "WT murine β2AR; log[ISO] -8.70927 M", "value": "99.06% and 99.1113% and 98.9767% and 100.68%"}, {"measurement": "125I-CYP binding (% of maximal)", "setting": "WT murine β2AR; log[ISO] -9.31133 M", "value": "98.5309% and 100.484% and 102.846% and 102.836%"}, {"measurement": "125I-CYP binding (% of maximal)", "setting": "WT murine β2AR; log[ISO] -9.91339 M", "value": "103.967% and 101.665% and 101.826% and 99.0182%"}, {"measurement": "125I-CYP binding, ISO competition curve (Figure 4B)", "setting": "guinea pig β2AR; Log [ISO] (M) -4.49485", "value": "1.551 and 1.783 and 2.036 and 2.11 and 1.706"}, {"measurement": "125I-CYP binding, ISO competition curve (Figure 4B)", "setting": "guinea pig β2AR; Log [ISO] (M) -5.09691", "value": "4.5383 and 7.032 and 7.563 and 7.078 and 5.303"}, {"measurement": "125I-CYP binding, ISO competition curve (Figure 4B)", "setting": "guinea pig β2AR; Log [ISO] (M) -5.69897", "value": "13.7083 and 20.96 and 21.5014 and 20.9933 and 15.5868"}, {"measurement": "125I-CYP binding, ISO competition curve (Figure 4B)", "setting": "guinea pig β2AR; Log [ISO] (M) -6.90309", "value": "63.0711 and 57.4939 and 78.0004 and 74.7226 and 70.0255"}, {"measurement": "125I-CYP binding, ISO competition curve (Figure 4B)", "setting": "guinea pig β2AR; Log [ISO] (M) -7.50515", "value": "85.6262 and 93.2237 and 94.6971 and 93.7843 and 89.3743"}, {"measurement": "125I-CYP binding, ISO competition curve (Figure 4B)", "setting": "guinea pig β2AR; Log [ISO] (M) -8.10721", "value": "99.3825 and 97.8919 and 98.1464 and 96.8121 and 98.8078"}, {"measurement": "125I-CYP binding, ISO competition curve (Figure 4B)", "setting": "guinea pig β2AR; Log [ISO] (M) -8.70927", "value": "98.4434 and 97.4234 and 99.4183 and 101.041 and 99.2113"}, {"measurement": "125I-CYP binding, ISO competition curve (Figure 4B)", "setting": "guinea pig β2AR; Log [ISO] (M) -9.31133", "value": "100.682 and 98.3967 and 100.968 and 99.8594 and 99.9768"}, {"measurement": "125I-CYP binding, ISO competition curve (Figure 4B)", "setting": "guinea pig β2AR; Log [ISO] (M) -9.91339", "value": "97.8042 and 98.3188 and 100.175 and 101.941 and 100.458"}]}
{"molecule": "B1", "values": [{"measurement": "EC50 of airway constriction", "setting": "[1]", "value": "8.0 ± 2.4", "unit": "ng/mL"}]}
